Assay results reported in patent US20230145729A1, “INDOLE DITERPENE BIOSYNTHESIS” (priority 2020, published 2023).

Assays:
mice (Swiss, female) [1] = experiment: Mouse tremor bioassay of purified epoxy-janthitrems (Example 7); type: in vivo; settings: ip; for peak tremor score (comparison among epoxy-janthitrems): EJ I 13.5, EJ III 17.2, EJ triol 16.2 mg/kg
Method: Epoxy-janthitrem I, Epoxy-janthitrem II, Epoxy-janthitrem III, Epoxy-janthitrem IV, and Epoxy-janthitriol, were administered by intraperitoneal injection as DMSO/water solutions (9:1, 50 μL) into mice (Swiss, female, weight 25+3g). Control mice were injected with the solvent alone (data not shown). Groups of four mice were used for each treatment group. All animal manipulations were approved, and tremor score was calculated, as described above in Example 5.
The dosage rates were informed by the experiment described in Example 5 above, with dose rates as follows: epoxy-janthitrem I (EJ I, 13.5 mg/kg), epoxy-janthitrem II (EJ II, 14.2 mg/kg), epoxy-janthitrem III (EJ III, 17.2 mg/kg), epoxy-janthitrem IV (EJ IV, 16.5 mg/kg), epoxy-janthitriol (EJ triol, 16.2 mg/kg). Tremors were measured regularly until the mice had completely recovered.

[2] = system: Porina (Wiseana copularis) larvae; experiment: Porina bioassay of purified epoxy-janthitrems (Example 6); type: in vivo; settings: for inhibition of feeding at the highest concentration: highest concentration (10 μg/g wet weight); for Mortality of larvae: data not shown; for average diet consumption with increasing concentration: 1, 2.5, 10 μg/g wet weight, 21 days
Method: The porina bioassay was carried out as described in Example 4, with the following variations:
15 replicates were used per treatment;
the age of the larvae at the start of the experiment was 10 weeks;
diet was made weekly and replaced after 4 days within each week;
the average weight of diet consumed by the larvae, larval weight gain/loss (data not shown), and larval mortality (data not shown) was determined;
three concentrations of purified epoxy-janthitrems were used (1, 2.5, 10 μg/g wet weight) instead of four; and
an average daily diet consumption (mg/larva) across the 21 days of the trial was determined.

[3] = system: Porina (Wiseana cervinata) larvae; experiment: Porina bioassay of purified epoxy-janthitrem I in semi-synthetic diet (Example 4); type: in vivo
Method: Six week-old porina (W. cervinata) larvae reared from eggs (Popay, 2001) were starved overnight and then weighed individually. Larvae were assigned to replicates so that all larvae within a replicate were of a similar weight but randomised amongst treatments. The 20 replicate larvae per treatment were each placed in specimen containers (75 mL) half filled with commercially available fine bark chips.
(§1) An agar-based semi-synthetic diet (Popay, 2001) without antimicrobials was prepared and epoxy-janthitrem I dissolved in 100 μL DMSO was added to 10 g of diet. Four concentrations of epoxy-janthitrem I were prepared (1, 2.5, 5, 10 μg/g wet weight) along with a DMSO control. Discs of diet (7 mm diam.) were taken and placed on top of the bark and the lids were replaced. The experiment was kept in the dark at 15° C. After 24 h, each diet was visually scored for feeding on a scale of 0-10 where 0=no feeding and 10=all diet consumed. The amount of webbing present was also scored on a scale of 0-5. The diet disc was replaced daily with fresh diet for 7 days. Each time diet was replaced, samples of the diet that the porina had fed on were taken as well as a sample of the fresh diet to analyse for epoxy-janthitrem I. Porina were reweighed at the completion of the trial.
The feeding score data were normalised by square root transformation before a repeated measures analysis was carried out using REML with treatment and date as factors. The daily webbing score and weight change of larvae over 7 days were analysed using ANOVA, blocked by replicate, to make pairwise comparisons for each concentration with the solvent control at each date.

mice (Swiss, female) [4] = experiment: Mouse tremor bioassay (Example 5); type: in vivo
Method: Epoxy-janthitrem I, lolitrem B, and the related indole-diterpene, paxilline were administered by intraperitoneal injection as DMSO/water solutions (9:1, 50 μL) into mice (Swiss, female, weight 25+3 g). Control mice were injected with the solvent alone. Dose rates which induce an acceptable maximum tremor response are well established for lolitrem B (2 mg/kg; Gallagher and Hawkes, 1986) and paxilline (6 mg/kg; Miles, et al., 1992).
Groups of four mice were used for each treatment group. All animal manipulations were approved by the
AgResearch Ruakura (Hamilton) Animal Ethics Committee established under the Animal Protection (code of ethical conduct) Regulations Act, 1987 (New Zealand). Tremor score was rated 1-5 on the basis of a visual rating scale using well established protocols (Gallagher and Hawkes, 1985; Gallagher and Hawkes, 1986). Tremors were measured regularly until the mice had completely recovered.

[5] = Analysis of porina diets for epoxy-janthitrem I (stability in diet); type: physicochemical; settings: average
Method: as §1

SMILES: CC(C)=CCOC(C)(C)C1OC2CC[C@]3(C)[C@@]4(C)c5[nH]c6cc7c(cc6c5CC4CC[C@@]3(O)C23O[C@H]3[C@@H]1O)CC1C7=CC(C)(C)OC1(C)C (stereo partly drawn) [epoxy-janthitrem III]
- peak tremor score (comparison among epoxy-janthitrems) (mice (Swiss, female) [1]): lowest peak tremor scores
- inhibition of feeding at the highest concentration [2]: little inhibition of feeding

SMILES: CC(C)=CC1O[C@@H]2C(OC3CC[C@]4(C)[C@@]5(C)c6[nH]c7cc8c(cc7c6CC5CC[C@@]4(O)C34O[C@@H]24)CC2C8=CC(C)(C)OC2(C)C)C(C)(C)O1 (stereo partly drawn) [epoxy-janthitrem II]
- time of peak tremorgenicity (mice (Swiss, female) [1]; EJ I 13.5, EJ II 14.2, EJ III 17.2, EJ IV 16.5, EJ triol 16.2 mg/kg): 9 hours post administration
- Weight change of larvae ([2]; 2.5 μg/g): net weigt loss
- Mortality of larvae ([2]; 2.5 μg/g): high
- Mortality of larvae ([2]; 10 μg/g): high
- average diet consumption with increasing concentration [2]: decreased with increasing epoxy-janthitrem concentration

SMILES: CC(=O)O[C@@H]1C(C(C)(C)OCC=C(C)C)OC2CC[C@]3(C)[C@@]4(C)c5[nH]c6cc7c(cc6c5CC4CC[C@@]3(O)C23O[C@@H]13)CC1C7=CC(C)(C)OC1(C)C (stereo partly drawn) [epoxy-janthitrem IV]
- inhibition of feeding at the highest concentration [2]: little inhibition of feeding

SMILES: CC(=O)O[C@@H]1C(C(C)(C)O)OC2CC[C@]3(C)[C@@]4(C)c5[nH]c6cc7c(cc6c5CC4CC[C@@]3(O)C23O[C@@H]13)CC1C7=CC(C)(C)OC1(C)C (stereo partly drawn) [epoxy-janthitrem I]
- Weight change of larvae ([3]; 1-10 ppm in diet, 7 days): continued to decline with increasing concentration
- % gain in weight ([3]; 1 ppm in diet, P<0.05 vs solvent control): 51.1%
- feeding score vs solvent control ([3]; 1 ppm in diet, apart from the first day): did not differ significantly from the solvent control
- feeding score vs solvent control ([3]; 2.5 ppm in diet): consistent reduction in feeding score for the first 6 days
- feeding score vs solvent control ([3]; 5 ppm in diet, entire period of the bioassay): feeding was strongly inhibited
- feeding score vs solvent control ([3]; 10 ppm in diet, entire period of the bioassay): feeding was strongly inhibited
- Weight gain of larvae relative to the solvent control ([3]; all concentrations except 1 ppm): significantly reduced
- in planta concentration that will reliably reduce larval feeding ([3]; extrapolated from dry weight of diet (about ten times wet weight concentrations)): ≥ 25 ppm
- Survival of larvae during the experiment ([3]; treatments containing epoxy-janthitrem I (1, 2.5, 5, 10 μg/g wet weight), 7 days): 100%
- tremor response (mice (Swiss, female) [4]; 8 mg/kg intraperitoneal): only a low tremor response
- concentration of epoxy-janthitrem I in diet relative to expected ([5]; analysed at time zero): 98%
- epoxy-janthitrem I remaining in diet, % of the starting concentration ([5]; diets after 24 h): 81%
- peak tremor score (comparison among epoxy-janthitrems) (mice (Swiss, female) [1]): significantly greater than that observed for any of the other epoxy-janthitrems
- Weight change of larvae ([2]; 2.5 μg/g): net weigt loss
- Mortality of larvae ([2]; 2.5 μg/g): high
- Mortality of larvae ([2]; 10 μg/g): high
- average diet consumption with increasing concentration [2]: decreased with increasing epoxy-janthitrem concentration
- effect on consumption at the lowest dose ([2]; lowest dose (1 μg/g wet weight)): substantial inhibitory effect

SMILES: CC1(C)C=C2c3cc4[nH]c5c(c4cc3CC2C(C)(C)O1)CC1CC[C@@]2(O)C34O[C@H]3[C@H](O)C(C(C)(C)O)OC4CC[C@]2(C)[C@@]51C (stereo partly drawn) [epoxy-janthitriol]
- peak tremor score (comparison among epoxy-janthitrems) (mice (Swiss, female) [1]): lowest peak tremor scores
- average diet consumption with increasing concentration [2]: decreased with increasing epoxy-janthitrem concentration

SMILES: CC(C)(O)C1OC2CC[C@@]3(C)[C@@](O)(CCC4Cc5c([nH]c6ccccc56)[C@@]43C)C2=CC1=O (stereo partly drawn) [paxilline, Paxilline]
- time of tremor peak (mice (Swiss, female) [4]; ip, paxilline 6 mg/kg): 30 mins post-dosing
- time to complete recovery (mice (Swiss, female) [4]; ip, paxilline 6 mg/kg): ≤ 6 hours post-dosing
